Patent EP4603506A1, “NOVEL GLP-1 RECEPTOR ANTAGONIST, AND PHARMACEUTICAL COMPOSITION FOR PREVENTING OR TREATING CONGENITAL […] OR HYPOGLYCEMIA, COMPRISING SAME” (Hanmi Pharm. Co., Ltd., priority 2022, dated 2024)
Starred links: 1 amine or outer side, 2 acyl side, 3 side chain; linkers in the order of their positions; H or OH if unused. Residues, ends and D or L forms follow the SMILES beside them. Groups on a side chain read outwards from the residue. *: point of attachment. C18 diacid = O=C(O)CCCCCCCCCCCCCCCCC(=O)*; γGlu = O=C(O)[C@H](CCC(=O)[*:2])N[*:1]; AEEA = NCCOCCOCC(=O)O

Columns and labels:
[1] = target: human GLP-1R (hGLP-1R) (Homo sapiens, UniProt P43220); test: In vitro cell activity: cAMP inhibition (LANCE Ultra cAMP kit) in CHO cells expressing human GLP-1R, with GLP-1 added; type: cell-based; conditions: relative activity from IC50 of cAMP inhibition; 0.1 nM GLP-1 added; comparative substance exendin-3 (9-39) amide = 100
Chain of human GLP-1R (hGLP-1R) (P43220 24-463): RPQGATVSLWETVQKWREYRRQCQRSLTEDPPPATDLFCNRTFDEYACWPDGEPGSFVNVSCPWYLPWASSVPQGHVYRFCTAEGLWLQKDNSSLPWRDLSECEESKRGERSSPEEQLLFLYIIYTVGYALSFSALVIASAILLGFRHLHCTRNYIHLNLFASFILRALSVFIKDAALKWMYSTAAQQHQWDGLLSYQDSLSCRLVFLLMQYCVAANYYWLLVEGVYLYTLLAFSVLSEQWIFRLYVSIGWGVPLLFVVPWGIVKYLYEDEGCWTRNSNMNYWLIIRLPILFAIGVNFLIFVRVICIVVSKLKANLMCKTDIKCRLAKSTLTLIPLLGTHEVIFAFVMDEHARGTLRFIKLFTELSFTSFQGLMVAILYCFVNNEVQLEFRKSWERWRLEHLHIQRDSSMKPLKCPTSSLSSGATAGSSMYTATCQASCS
Description: The human GLP-1R-expressed CHO cells were cultured in a 384-well plate for 24 hours. Thereafter, the culture was removed, and 10 µL of each serially diluted substance was added to the plate, followed by incubation at room temperature for 30 minutes. Then, 5 µL of Eu-cAMP tracer was added, and then 5 µL of a buffer containing cAMP antibodies was added, followed by incubation at room temperature for 60 minutes. […]

[2] = test system: C57BL/6N mice; test: Oral glucose tolerance test (OGTT), blood glucose levels; type: in vivo; conditions: 2 g/kg oral glucose after 4-hour fasting, 3690 and 7380 µg/kg subcutaneous, 24 hours before OGTT, versus vehicle control, FIG. 1
Description: The test was conducted on 8-week-old male mice, and during the study, five mice were housed in each group and had free access to drinking water. The lights were turned off from 6 PM to 6 AM.
The administration of the drugs was completed 24 hours before the oral glucose tolerance test (OGTT) for Groups 1, 3, and 4, and 30 minutes before for Group 2. Particularly, the dose was expressed as a value based on the value obtained by subtracting the mass of the fatty acid moieties from the total mass of the acylated GLP-1 receptor antagonist analog conjugate, that is, the value obtained by summing the mass of each of only polypeptide moieties.
As for the OGTT, all the groups were orally administered 2 g/kg glucose once after 4-hour fasting, and then blood samples were consecutively collected from the tail vein at specific time intervals (0, 15, 30, 60, and 120 minutes) to measure blood glucose levels by a OneTouch blood glucose meter (OneTouch Select®, LifeScan, USA). Statistical analysis was performed using an unpaired t-test to compare between the control group and the test groups (# ~ ###p < 0.05 ~ 0.001).

[3] = test system: PBH rat model (VSG, SD rats); test: Mixed meal tolerance test (MMTT) in postbariatric hypoglycemia (PBH) rat model induced by vertical sleeve gastrectomy (VSG); type: in vivo; conditions: MMTT 4 hours after 3720 µg/kg (1070.5 nmol/kg) subcutaneous, versus excipient, FIG. 2
Description: A PBH rat model was established by performing sham operations or VSG surgery on SD rats. The rats were fed a high-fat diet (HFD) for 19 weeks, and divided randomly into two groups with 10 animals each (an excipient control group and a GLP-1R antagonist analog conjugate administered group). […] As for the MMTT, all the groups were orally administered 2 mL of a mixed meal (Ensure Plus®, Abbott, USA) once after 5-hour fasting, and then blood samples were consecutively collected at specific time intervals (0, 15, 30, 45, 60, and 120 minutes) to measure blood glucose levels (GDoctor, Allmedicus Co., Korea). Statistical analysis was performed using the one-way ANOVA to compare between the VSG rat excipient group (control group) and the test groups (* ~ ***p < 0.05 ~ 0.001). Particularly, the dose was expressed as a value based on the value obtained by subtracting the mass of the fatty acid moieties from the total mass of the acylated GLP-1 receptor antagonist analog conjugate, that is, the value obtained by summing the masses of each of only polypeptide moieties.
Additionally, 15 minutes after the MMTT test, plasma was isolated from blood samples, and the insulin secretion level was measured using a rat insulin ELISA kit ([…], Merck Millipore, USA).

Molecule | In vitro activity compared with comparative substance (%) [1] | blood glucose levels [2] | blood glucose levels [3]
CC[C@H](C)[C@H](NC(=O)[C@H](Cc1ccccc1)NC(=O)[C@H](CC(C)C)NC(=O)[C@H](CCCNC(=N)N)NC(=O)[C@@H](NC(=O)[C@H](C)NC(=O)[C@H](CCC(=O)O)NC(=O)[C@H](CCC(=O)O)NC(=O)[C@H](CCC(=O)O)NC(=O)[C@H](CC(C)C)NC(=O)[C@H](Cc1ccc(O)cc1)NC(=O)[C@H](CO)NC(=O)[C@H](CO)NC(=O)[C@@H](NC(=O)[C@H](CC(=O)O)NC(C)=O)C(C)C)C(C)C)C(=O)N[C@@H](C)C(=O)N[C@@H](Cc1c[nH]c2ccccc12)C(=O)N[C@@H](CC(C)C)C(=O)N[C@H](C(=O)N[C@@H](CCCCN)C(=O)NCC(=O)NCC(=O)N1CCC[C@H]1C(=O)N[C@@H](CO)C(=O)N[C@@H](CO)C(=O)NCC(=O)N[C@@H](C)C(=O)N1CCC[C@H]1C(=O)N1CCC[C@H]1C(=O)N1CCC[C@H]1C(=O)N[C@@H](CO)C(=O)N[C@@H](CCCCNC(=O)COCCOCCNC(=O)COCCOCCNC(=O)CC[C@H](NC(=O)CCCCCCCCCCCCCCCCC(=O)O)C(=O)O)C(N)=O)C(C)C [SEQ ID NO: 18] (Ac-DVSSYLEEEAVRLFIAWLVKGGPSSGAPPPSK([AEEA-AEEA-γGlu-C18 diacid])-NH2) | 19.8% |  | 
DLSSYLEEEAVRLFIEWLKNGGPSSGAPPPSK(2) [SEQ ID NO: 17] |  | increased the blood glucose levels in vivo compared with the control group at all the doses | significantly increased blood glucose levels in vivo compared with PBH rats administered the excipient
